Test results as given in PMC7158045 (BMC Plant Biology, 2020).
Where a name gives a salt, the structure may show the parent alone.

Columns and labels:
Assay in all cases: biochemical
[1] = target: T1, ZmDRIK1 (DROUGHT RESPONSIVE INACTIVE KINASE 1), kinase domain (Zea mays, UniProt C0P4K9); conditions: read-out: dTm B, sheet ZmDRIK1-R187-S514;; DSF, Boltzmann fit, 0.1% DMSO
T1 construct: gene ZEAMMB73_Zm00001d028770; ZmDRIK1-KD R187-S514 (kinase domain)
T1 sequence (C0P4K9 187-514): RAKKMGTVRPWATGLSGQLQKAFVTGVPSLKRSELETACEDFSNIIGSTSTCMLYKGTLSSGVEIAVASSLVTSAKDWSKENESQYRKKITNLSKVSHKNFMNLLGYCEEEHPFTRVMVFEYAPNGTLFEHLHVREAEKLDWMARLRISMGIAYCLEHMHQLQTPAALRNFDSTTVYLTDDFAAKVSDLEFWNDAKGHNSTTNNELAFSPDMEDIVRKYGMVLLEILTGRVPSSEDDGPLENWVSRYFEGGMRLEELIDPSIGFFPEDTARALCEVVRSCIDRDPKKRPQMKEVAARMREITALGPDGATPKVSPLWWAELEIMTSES

[2] = target: T2, ZmDRIK1-K217-P492 (Zea mays, UniProt C0P4K9); conditions: read-out: dTm B, sheet ZmDRIK1-K217-P492;; DSF, Boltzmann fit, 0.1% DMSO
T2 construct: kinase domain, K217-P492
T2 sequence (C0P4K9 1-514): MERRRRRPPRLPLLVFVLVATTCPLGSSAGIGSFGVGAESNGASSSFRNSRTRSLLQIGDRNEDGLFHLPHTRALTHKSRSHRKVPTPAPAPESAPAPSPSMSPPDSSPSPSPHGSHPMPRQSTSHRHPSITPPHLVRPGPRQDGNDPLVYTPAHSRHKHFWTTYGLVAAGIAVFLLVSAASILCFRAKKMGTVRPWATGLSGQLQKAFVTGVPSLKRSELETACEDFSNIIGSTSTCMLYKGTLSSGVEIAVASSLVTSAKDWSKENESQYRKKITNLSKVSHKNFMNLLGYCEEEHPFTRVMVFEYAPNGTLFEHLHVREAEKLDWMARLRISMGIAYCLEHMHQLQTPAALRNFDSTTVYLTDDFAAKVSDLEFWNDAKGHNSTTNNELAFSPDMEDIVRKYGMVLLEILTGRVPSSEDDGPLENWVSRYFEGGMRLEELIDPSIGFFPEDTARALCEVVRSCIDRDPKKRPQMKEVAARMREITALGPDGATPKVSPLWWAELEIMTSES

[3] = target: T3, ZmDRIK1-K217-S514 (Zea mays, UniProt C0P4K9); conditions: read-out: dTm B, sheet ZmDRIK1-K217-S514;; DSF, Boltzmann fit, 0.1% DMSO
T3 construct: kinase domain, K217-S514
T3 sequence (C0P4K9 1-514): T2 sequence (C0P4K9 1-514)

[4] = target: T4, ZmDRIK1-R187-P492 (Zea mays, UniProt C0P4K9); conditions: read-out: dTm B, DSF, Boltzmann fit, 0.1% DMSO
T4 construct: kinase domain, R187-P492
T4 sequence (C0P4K9 1-514): T2 sequence (C0P4K9 1-514)

SMILES | ΔTm at 10 µM [1] | ΔTm at 10 µM [2] | ΔTm at 10 µM [3] | ΔTm at 10 µM [4]
CCOC(=O)c1cnc2ccc(-c3cncc(NS(=O)(=O)c4ccccc4)c3)cn12 [HS-173] | -0.566 °C | -0.326 °C | -0.361 °C | -0.247 °C
Cc1ccc(F)c(NC(=O)Nc2ccc(-c3cccc4[nH]nc(N)c34)cc2)c1 [Linifanib (ABT-869)] | -0.711 °C | -4.15 °C | -0.66 °C | -0.414 °C
COc1cc2nccc(Oc3ccc(NC(=O)NC4CC4)c(Cl)c3)c2cc1C(N)=O [Lenvatinib (E7080)] | -1.04 °C | -1.02 °C | -0.299 °C | -0.406 °C
Oc1ccc(Nc2nc(-c3ccc(Cl)cc3)cs2)cc1 [SKI II] | 0.0373 °C | -0.22 °C | -1.52 °C | -2.86 °C
CN(C)C/C=C/C(=O)Nc1cc2c(Nc3ccc(F)c(Cl)c3)ncnc2cc1O[C@H]1CCOC1 [Afatinib (BIBW2992)] | -0.728 °C | -1.3 °C | -0.623 °C | -0.346 °C
N#CC(C#N)=Cc1ccc(O)c(O)c1 [AG-18] | -1.16 °C | -0.987 °C | -0.556 °C | -0.457 °C
CN1CCN(C2CCN(C(=O)Nc3cc(Oc4ccc(NC(=O)C5(C(=O)Nc6ccc(F)cc6)CC5)c(F)c4)ccn3)CC2)CC1 [Golvatinib (E7050)] | -0.382 °C | -0.473 °C | -0.278 °C | -0.232 °C
C[C@H]1[C@H](C)CC[C@]2(C(=O)O)CC[C@]3(C)C(=CC[C@@H]4[C@@]5(C)C[C@@H](O)[C@H](O)[C@@](C)(CO)[C@@H]5CC[C@]43C)[C@H]12 [Asiatic Acid] | -0.753 °C | -1.33 °C | -0.368 °C | -0.41 °C
COc1ccc2c(c1)c(C1=C(c3c[nH]c4ccccc34)C(=O)NC1=O)cn2CCCN(C)C [Go 6983] | -0.633 °C | -1.22 °C | -0.364 °C | -0.26 °C
O=C(Nc1cccc(Cl)c1)Nc1ncc(CCNc2ncnc3ccsc23)s1 [SNS-314 Mesylate] | -23.9 °C | -0.277 °C | -1.86 °C | 0.159 °C
CCN1CCN(C(=O)Cc2ccc(Nc3ncc(F)c(Nc4ccc(C(=O)Nc5ccccc5Cl)cc4)n3)cc2)CC1 [Aurora A Inhibitor I] | -0.616 °C | -1.33 °C | -0.286 °C | -0.457 °C
NC(=O)c1ncn([C@@H]2O[C@H](CO)[C@@H](O)[C@H]2O)c1N [Acadesine] | -0.564 °C | -0.691 °C | -0.387 °C | -0.0339 °C
Cc1nc(NC(=O)N2CCC[C@H]2C(N)=O)sc1-c1csc(C(C)(C)C)n1 [A66] | -0.746 °C | -0.988 °C | -0.323 °C | -0.295 °C
N#C/C(=C(/N)Sc1ccc(N)cc1)c1ccccc1C(F)(F)F [SL-327] | -1.09 °C | -0.701 °C | -0.356 °C | -0.157 °C
O=C(Cc1ccc(-c2ccc(OCCN3CCOCC3)cc2)cn1)NCc1ccccc1 [KX2-391] | -0.49 °C | -0.496 °C | -0.346 °C | -0.338 °C
C[C@@H]1CN(CC(=O)Nc2ccc3c(c2)Cc2cccc(-c4cc(=O)cc(N5CCOCC5)o4)c2S3)C[C@H](C)O1 [KU-60019] | -1.17 °C | -1.19 °C | -0.426 °C | -0.366 °C
Cc1ccc(C(=O)Nc2ccc(CN3CCN(C)CC3)c(C(F)(F)F)c2)cc1C#Cc1cnc2cccnn12 [Ponatinib (AP24534)] | -0.951 °C | -0.505 °C | -0.482 °C | -0.39 °C
